Columns and labels:
[1] = biological target: Insulin receptor (Homo sapiens) (UniProt P06213); assay: Inhibition of human IR (1005 to 1310 residues) assessed as residual activity at 1 uM using KKSRGDYMTMQIG as substrate after 40 mins by [gamma-33ATP] radiometric assay relative to control
[2] = test system: Serine/threonine-protein kinase Sgk2 (Homo sapiens), Q9HBY8 [S416D]; assay: Inhibition of recombinant human SGK2 S416D mutant (54 to end residues) assessed as residual activity at 1 uM using GRPRTSSFAEGKK as substrate measured after 40 mins in presence of [gamma33P]ATP by scintillation counting method relative to control
[3] = biological target: Maternal embryonic leucine zipper kinase (Homo sapiens) (UniProt Q14680); assay: Inhibition of recombinant human MELK (1 to 340 residues) assessed as residual activity at 1 uM using KKLNRTLSFAEPG as substrate incubated for 40 mins in presence of [gamma-33ATP by scintillation counting based radiometry assay relative to control
[4] = biological target: Insulin receptor-related protein (Homo sapiens) (UniProt P14616); assay: Inhibition of human IRR (943 to 1266 residues) assessed as residual activity at 1 uM using myelin basic protein as substrate after 40 mins by [gamma-33ATP] radiometric assay relative to control
[5] = test system: eIF-2-alpha kinase GCN2 (Homo sapiens), Q9P2K8 [E556G]; assay: Inhibition of recombinant full length human GCN2 E556G mutant assessed as residual activity at 1 uM using RSRSRSRSRSRSRSR as substrate at 40 mins in presence of [gamma-33ATP] by scintillation counting based radiometry assay relative to control
[6] = biological target: Cyclin-dependent kinase-like 1 (Homo sapiens) (UniProt Q00532); assay: Inhibition of recombinant human CDKL1 (1 to 303 residues) assessed as residual activity at 1 uM using RRRFRPASPLRGP as substrate measured after 120 mins in presence of [gamma33P]ATP by scintillation counting method
[7] = biological target: Tribbles homolog 2 (Homo sapiens) (UniProt Q92519); assay: Inhibition of recombinant full-length human TRB2 at 1 uM assessed as residual activity at 1 uM using RRRFRPASPLRGPPK as substrate measured after 120 mins in presence of [gamma33P]ATP by scintillation counting method relative to control
[8] = biological target: High affinity nerve growth factor receptor (Homo sapiens) (UniProt P04629); assay: Inhibition of human TrkA (440 to end residues) assessed as residual activity at 1 uM using KKKSPGEYVNIEFG as substrate measured after 40 mins in presence of [gamma33P]ATP by scintillation counting method relative to control
[9] = biological target: Transcription initiation factor TFIID subunit 1-like (Homo sapiens) (UniProt Q8IZX4); assay: Inhibition of human TAF1L (1428 to end residues) assessed as residual activity at 1 uM using RRRFRPASPLRGPPK as substrate measured after 120 mins in presence of [gamma33P]ATP by scintillation counting method relative to control
[10] = biological target: Protein-tyrosine kinase 2-beta (Homo sapiens) (UniProt Q14289); assay: Inhibition of recombinant human full length PYK2 assessed as residual activity at 1 uM using poly(Glu, Tyr) 4:1 as substrate measured after 40 mins in presence of [gamma33P]ATP by scintillation counting method relative to control
[11] = biological target: Ribosomal protein S6 kinase alpha-5 (Homo sapiens) (UniProt O75582); assay: Inhibition of recombinant human MSK1 (2 to end residues) assessed as residual activity at 1 uM using GRPRTSSFAEGKK as substrate measured after 40 mins in presence of [gamma33P]ATP by scintillation counting method relative to control
[12] = biological target: Serine/threonine-protein kinase TAO1 (Homo sapiens) (UniProt Q7L7X3); assay: Inhibition of human TAO1 (1 to 327 residues) assessed as residual activity at 1 uM using myelin basic protein as substrate measured after 40 mins in presence of [gamma33P]ATP by scintillation counting method relative to control
[13] = biological target: T1, cGMP-dependent protein kinase 1 (Homo sapiens) (UniProt Q13976); assay: Inhibition of recombinant full-length human PKG1beta assessed as residual activity at 1 uM using RRRLSFAEPG as substrate measured after 40 mins in presence of [gamma33P]ATP by scintillation counting method relative to control
T1 sequence (whole entry): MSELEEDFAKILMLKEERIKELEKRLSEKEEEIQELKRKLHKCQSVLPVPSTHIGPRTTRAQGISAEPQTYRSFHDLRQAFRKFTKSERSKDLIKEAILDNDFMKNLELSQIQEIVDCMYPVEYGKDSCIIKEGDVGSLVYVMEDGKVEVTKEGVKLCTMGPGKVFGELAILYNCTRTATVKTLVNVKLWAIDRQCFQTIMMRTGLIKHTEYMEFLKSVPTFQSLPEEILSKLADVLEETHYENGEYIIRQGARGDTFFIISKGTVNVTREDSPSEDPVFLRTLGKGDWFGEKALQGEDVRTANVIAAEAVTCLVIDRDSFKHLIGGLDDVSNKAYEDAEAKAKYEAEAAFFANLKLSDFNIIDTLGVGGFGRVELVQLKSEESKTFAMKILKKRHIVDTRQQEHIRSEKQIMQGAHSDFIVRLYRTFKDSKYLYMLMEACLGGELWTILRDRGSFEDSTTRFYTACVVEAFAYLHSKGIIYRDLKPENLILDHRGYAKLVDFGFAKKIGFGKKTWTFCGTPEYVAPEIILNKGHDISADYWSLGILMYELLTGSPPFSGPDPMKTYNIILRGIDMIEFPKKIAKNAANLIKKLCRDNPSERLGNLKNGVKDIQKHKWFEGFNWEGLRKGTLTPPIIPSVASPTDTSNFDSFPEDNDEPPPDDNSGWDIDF

[14] = test system: Epidermal growth factor receptor (Homo sapiens), P00533 [L858R]; assay: Inhibition of recombinant human EGFR L858R mutant (696 to end residues) assessed as residual activity at 1 uM using poly(Glu, Tyr) 4:1 as substrate at 40 mins in presence of [gamma-33ATP] by scintillation counting based radiometry assay relative to control
[15] = biological target: Mitogen-activated protein kinase kinase kinase kinase 5 (Homo sapiens) (UniProt Q9Y4K4); assay: Inhibition of recombinant human MAP4K5 assessed as residual activity at 1 uM using myelin basic protein as substrate incubated for 40 mins in presence of [gamma-33ATP by scintillation counting based radiometry assay relative to control
[16] = biological target: Serine/threonine-protein kinase Nek1 (Homo sapiens) (UniProt Q96PY6); assay: Inhibition of recombinant human NEK1 (1 to 505 residues) assessed as residual activity at 1 uM using RLGRDKYKTLRQI as substrate measured after 40 mins in presence of [gamma33P]ATP by scintillation counting based radiometry assay relative to control
[17] = biological target: Wee1-like protein kinase 2 (Homo sapiens) (UniProt P0C1S8); assay: Inhibition of recombinant full-length human WEE1b at 1 uM assessed as residual activity at 1 uM using LSNLYHQGKFLQTFCGSPLYRRR as substrate measured after 120 mins in presence of [gamma33P]ATP by scintillation counting method relative to control

Chain of Serine/threonine-protein kinase Sgk2 (Homo sapiens), Q9HBY8 [S416D] (Q9HBY8 1-367 with tags or gaps S416D): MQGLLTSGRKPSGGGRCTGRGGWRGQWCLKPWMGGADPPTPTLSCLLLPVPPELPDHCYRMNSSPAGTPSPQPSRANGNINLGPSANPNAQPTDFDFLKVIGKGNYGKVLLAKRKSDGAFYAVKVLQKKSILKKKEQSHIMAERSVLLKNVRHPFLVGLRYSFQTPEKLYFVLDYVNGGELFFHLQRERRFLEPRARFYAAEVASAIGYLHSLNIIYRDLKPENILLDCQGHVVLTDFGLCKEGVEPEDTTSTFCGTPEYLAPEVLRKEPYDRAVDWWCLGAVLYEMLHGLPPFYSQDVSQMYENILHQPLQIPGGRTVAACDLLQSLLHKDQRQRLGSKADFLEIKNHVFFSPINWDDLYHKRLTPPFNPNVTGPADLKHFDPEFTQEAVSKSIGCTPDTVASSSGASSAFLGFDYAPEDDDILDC
Chain of Protein-tyrosine kinase 2-beta (Homo sapiens) (Q14289 whole entry, looked up): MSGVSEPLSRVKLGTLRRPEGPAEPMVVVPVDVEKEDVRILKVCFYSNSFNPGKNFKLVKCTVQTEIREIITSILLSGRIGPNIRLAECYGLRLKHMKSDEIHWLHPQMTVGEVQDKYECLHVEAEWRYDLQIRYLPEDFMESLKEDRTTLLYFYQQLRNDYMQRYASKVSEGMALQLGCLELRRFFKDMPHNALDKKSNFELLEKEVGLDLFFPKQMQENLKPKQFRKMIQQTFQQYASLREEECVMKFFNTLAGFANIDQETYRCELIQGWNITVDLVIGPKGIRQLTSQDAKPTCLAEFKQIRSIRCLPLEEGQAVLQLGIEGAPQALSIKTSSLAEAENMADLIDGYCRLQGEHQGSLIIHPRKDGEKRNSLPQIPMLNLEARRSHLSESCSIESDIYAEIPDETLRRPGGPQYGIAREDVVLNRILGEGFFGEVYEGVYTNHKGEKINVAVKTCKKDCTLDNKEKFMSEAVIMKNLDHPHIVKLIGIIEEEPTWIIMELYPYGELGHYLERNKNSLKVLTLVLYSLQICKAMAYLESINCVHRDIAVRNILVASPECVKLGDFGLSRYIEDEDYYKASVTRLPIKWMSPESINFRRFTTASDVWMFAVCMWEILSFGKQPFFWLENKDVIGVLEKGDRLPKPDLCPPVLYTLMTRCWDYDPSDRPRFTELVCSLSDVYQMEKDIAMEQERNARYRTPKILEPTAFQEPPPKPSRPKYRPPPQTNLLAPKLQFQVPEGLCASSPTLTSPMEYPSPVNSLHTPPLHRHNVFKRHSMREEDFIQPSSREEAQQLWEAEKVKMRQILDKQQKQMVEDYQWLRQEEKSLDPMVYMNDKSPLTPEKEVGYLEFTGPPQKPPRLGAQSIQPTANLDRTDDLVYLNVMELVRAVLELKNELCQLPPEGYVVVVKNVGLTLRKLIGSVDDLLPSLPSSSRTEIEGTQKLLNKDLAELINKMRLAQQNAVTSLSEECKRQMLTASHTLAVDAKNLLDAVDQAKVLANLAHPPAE
Chain of Cyclin-dependent kinase-like 1 (Homo sapiens) (Q00532 whole entry, the tested form may be a part): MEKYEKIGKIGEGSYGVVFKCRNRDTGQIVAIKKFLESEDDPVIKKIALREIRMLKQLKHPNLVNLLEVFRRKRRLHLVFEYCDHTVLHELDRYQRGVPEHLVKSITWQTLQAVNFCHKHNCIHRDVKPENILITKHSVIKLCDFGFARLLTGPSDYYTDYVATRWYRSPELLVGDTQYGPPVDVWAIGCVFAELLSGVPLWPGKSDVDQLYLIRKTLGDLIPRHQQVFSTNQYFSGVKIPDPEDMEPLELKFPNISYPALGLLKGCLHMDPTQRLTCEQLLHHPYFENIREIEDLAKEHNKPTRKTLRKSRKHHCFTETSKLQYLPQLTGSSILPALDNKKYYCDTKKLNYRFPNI
Chain of High affinity nerve growth factor receptor (Homo sapiens) (P04629 33-796 limits assumed): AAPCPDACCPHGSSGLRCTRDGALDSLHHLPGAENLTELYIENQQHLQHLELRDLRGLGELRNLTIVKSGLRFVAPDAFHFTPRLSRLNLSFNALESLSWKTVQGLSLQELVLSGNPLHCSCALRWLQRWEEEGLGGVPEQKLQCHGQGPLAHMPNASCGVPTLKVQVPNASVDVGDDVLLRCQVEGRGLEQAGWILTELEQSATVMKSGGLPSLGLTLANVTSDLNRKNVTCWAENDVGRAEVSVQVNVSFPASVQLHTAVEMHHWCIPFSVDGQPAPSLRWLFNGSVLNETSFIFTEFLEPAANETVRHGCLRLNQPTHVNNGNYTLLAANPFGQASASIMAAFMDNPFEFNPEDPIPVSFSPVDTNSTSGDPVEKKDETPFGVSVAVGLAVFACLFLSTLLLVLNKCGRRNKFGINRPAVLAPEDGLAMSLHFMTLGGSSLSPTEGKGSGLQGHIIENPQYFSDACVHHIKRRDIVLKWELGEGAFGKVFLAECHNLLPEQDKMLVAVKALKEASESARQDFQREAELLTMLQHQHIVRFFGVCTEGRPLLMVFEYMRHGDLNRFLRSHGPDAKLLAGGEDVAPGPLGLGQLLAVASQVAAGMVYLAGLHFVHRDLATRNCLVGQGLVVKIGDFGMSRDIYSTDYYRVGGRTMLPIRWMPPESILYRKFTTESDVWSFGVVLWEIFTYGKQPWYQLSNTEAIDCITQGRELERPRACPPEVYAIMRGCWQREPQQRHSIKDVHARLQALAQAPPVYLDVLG
Chain of Maternal embryonic leucine zipper kinase (Homo sapiens) (Q14680 whole entry, looked up, the tested form may be a part): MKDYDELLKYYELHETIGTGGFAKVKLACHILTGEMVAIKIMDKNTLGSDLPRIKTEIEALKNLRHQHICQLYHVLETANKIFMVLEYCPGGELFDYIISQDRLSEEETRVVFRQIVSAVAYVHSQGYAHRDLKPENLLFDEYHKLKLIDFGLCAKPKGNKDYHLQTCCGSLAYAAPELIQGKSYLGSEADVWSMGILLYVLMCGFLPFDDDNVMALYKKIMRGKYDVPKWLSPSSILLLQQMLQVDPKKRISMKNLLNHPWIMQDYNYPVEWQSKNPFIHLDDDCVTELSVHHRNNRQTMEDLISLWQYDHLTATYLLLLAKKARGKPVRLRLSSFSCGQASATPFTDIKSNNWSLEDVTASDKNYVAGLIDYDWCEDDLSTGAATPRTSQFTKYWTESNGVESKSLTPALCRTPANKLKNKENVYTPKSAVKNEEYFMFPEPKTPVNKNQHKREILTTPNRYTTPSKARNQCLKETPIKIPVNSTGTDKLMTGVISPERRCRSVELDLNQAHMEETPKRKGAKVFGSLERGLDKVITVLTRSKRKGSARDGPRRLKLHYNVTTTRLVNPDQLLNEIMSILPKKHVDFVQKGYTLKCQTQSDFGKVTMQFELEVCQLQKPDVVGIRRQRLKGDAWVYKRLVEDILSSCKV
Chain of Insulin receptor-related protein (Homo sapiens) (P14616 27-742 limits assumed): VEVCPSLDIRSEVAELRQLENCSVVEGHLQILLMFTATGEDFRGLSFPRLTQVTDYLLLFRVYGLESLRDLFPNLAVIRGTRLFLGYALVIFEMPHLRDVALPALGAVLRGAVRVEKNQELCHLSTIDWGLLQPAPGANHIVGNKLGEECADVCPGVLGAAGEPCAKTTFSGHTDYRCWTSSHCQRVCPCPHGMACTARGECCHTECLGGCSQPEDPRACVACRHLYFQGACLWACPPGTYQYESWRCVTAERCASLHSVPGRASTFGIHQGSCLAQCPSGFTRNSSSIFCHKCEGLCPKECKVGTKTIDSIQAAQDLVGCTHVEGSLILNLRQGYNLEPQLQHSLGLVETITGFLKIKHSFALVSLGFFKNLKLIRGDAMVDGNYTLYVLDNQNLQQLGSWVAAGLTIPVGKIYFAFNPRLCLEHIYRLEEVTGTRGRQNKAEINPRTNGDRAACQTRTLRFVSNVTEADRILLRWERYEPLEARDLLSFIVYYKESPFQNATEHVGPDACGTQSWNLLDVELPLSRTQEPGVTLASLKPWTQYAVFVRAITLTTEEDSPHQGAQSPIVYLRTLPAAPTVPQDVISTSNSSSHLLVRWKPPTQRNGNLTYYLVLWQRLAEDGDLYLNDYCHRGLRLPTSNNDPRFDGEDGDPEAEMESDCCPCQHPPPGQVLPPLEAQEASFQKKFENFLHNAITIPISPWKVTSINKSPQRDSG
Chain of Insulin receptor-related protein (Homo sapiens) (P14616 747-1297 limits assumed): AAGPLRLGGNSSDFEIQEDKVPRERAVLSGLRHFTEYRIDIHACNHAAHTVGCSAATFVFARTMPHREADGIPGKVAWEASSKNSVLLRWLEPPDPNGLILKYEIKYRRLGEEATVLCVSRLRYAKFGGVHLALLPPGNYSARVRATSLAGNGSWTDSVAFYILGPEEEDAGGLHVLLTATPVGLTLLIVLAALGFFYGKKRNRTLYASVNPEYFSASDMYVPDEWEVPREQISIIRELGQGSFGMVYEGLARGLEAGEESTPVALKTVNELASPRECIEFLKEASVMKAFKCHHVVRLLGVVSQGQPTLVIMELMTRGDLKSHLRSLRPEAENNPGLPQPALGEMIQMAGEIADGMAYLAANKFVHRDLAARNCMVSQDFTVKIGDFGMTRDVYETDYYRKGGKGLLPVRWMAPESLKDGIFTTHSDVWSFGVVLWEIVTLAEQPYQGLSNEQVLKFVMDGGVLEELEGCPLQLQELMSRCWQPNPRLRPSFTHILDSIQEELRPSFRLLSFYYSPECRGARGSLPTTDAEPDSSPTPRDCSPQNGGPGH
Chain of Tribbles homolog 2 (Homo sapiens) (Q92519 whole entry): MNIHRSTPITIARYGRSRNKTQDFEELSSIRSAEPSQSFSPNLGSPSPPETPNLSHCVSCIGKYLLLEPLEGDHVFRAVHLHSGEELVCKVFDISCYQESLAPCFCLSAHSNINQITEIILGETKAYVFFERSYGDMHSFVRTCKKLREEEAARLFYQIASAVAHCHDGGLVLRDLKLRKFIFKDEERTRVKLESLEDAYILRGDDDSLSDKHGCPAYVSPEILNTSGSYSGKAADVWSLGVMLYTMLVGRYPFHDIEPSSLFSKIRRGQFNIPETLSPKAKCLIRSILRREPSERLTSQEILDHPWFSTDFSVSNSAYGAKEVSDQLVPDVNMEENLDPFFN

C=CCOC(=O)c1cc(-c2ccc(/C=C3/NC(=S)NC3=O)o2)ccc1Cl
Activity [1]: 108%
Activity [2]: 108%
Activity [3]: 105%
Activity [4]: 45%
Activity [5]: 106%
Activity [6]: 78%
Activity [7]: 49%
Activity [8]: 100%
Activity [9]: 66%
Activity [10]: 104%
Activity [11]: 100%
Activity [12]: 82%
Activity [13]: 100%
Activity [14]: 106%
Activity [15]: 94%
Activity [16]: 95%
Activity [17]: 93%

N=C1NC(=O)/C(=C\c2ccc(-c3cccc([N+](=O)[O-])c3)o2)S1
Activity [1]: 97%
Activity [2]: 101%
Activity [3]: 89%
Activity [4]: 55%
Activity [5]: 104%
Activity [6]: 85%
Activity [7]: 40%
Activity [8]: 93%
Activity [9]: 51%
Activity [10]: 103%
Activity [11]: 95%
Activity [12]: 52%
Activity [13]: 82%
Activity [14]: 76%
Activity [15]: 95%
Activity [16]: 107%
Activity [17]: 106%

From ChEMBL document CHEMBL4334438, “Discovery of novel glycogen synthase kinase-3α inhibitors: Structure-based virtual screening, preliminary SAR and biological evaluation for treatment of acute myeloid leukemia” (Eur J Med Chem, 2019)
